{"source": "patent US6033913A", "about": "“Detection of ligand Interaction with polymeric material” (New York University, priority 1997, dated 2000)", "key": {"[1]": {"test_system": "yeast hexokinase", "assay": "Mechanochemical test of yeast hexokinase film with glucose (isometric tension and compliance)", "assay_type": "binding", "from_the_text": "(§1) Referring again to FIGS. 4 and 5: With a sample strip S mounted between the tips of the arms 148, 168, and reference solution L flowing in the well 210, mechanochemical testing of the sample S is ready to begin. Testing itself consists of two stages. In the first (preparative) stage, the strip is stretched until a maximum spring constant of the strip is obtained, and then is allowed to relax under isometric conditions until a constant level of isometric tension is reached. Isometric condition herein means keeping a fixed distance between tips of the arms 148 and 146. In the second stage relaxed strip is brought into contact with ligand solution and ligand-induced changes of the isometric tension and spring constant are measured.\nSpring constant is measured by applying small deformations to the strip with an amplitude AL much smaller than (L-L0). These deformations cause tension oscillations with amplitude of ΔF. […]\nAt the testing stage, ligand-induced changes in F and κ are measured after an exchange in the flow cell of reference solution for that containing ligands. […] This can also be calculated by the formula\nA film of yeast hexokinase (Sigma Chemical Company, St. Louis, Mo.) was prepared. […] Changes in elasticity and isometric tension in the sample were measured at the moments indicated by arrows and changes in tension and in modulus resulted from such exchange of solutions were measured. […]"}, "[2]": {"biological_target": "T1, concanavalin A (Canavalia ensiformis, UniProt P02866)", "assay": "biochemical", "assay_type": "binding", "parameters": "purchased Sigma, St. Louis, Mo", "details": "for tension change on removal of divalent cations: buffer 1 exchanged for buffer 2 (without MnCl2 and CaCl2, both removed together)", "from_the_text": "as §1\nAt the testing stage, ligand-induced changes in F and κ are measured after an exchange in the flow cell of reference solution for that containing ligands. These parameters by themselves can be used to detect binding. However, they also allow estimation of a practically important parameter: ligand-induced strain, εL=(L-L1)/L0, where L1 is the length of the sample in the ligand solution when no force is applied. This can also be calculated by the formula\nLigands are added at the moment indicated by arrows in FIGS. 12, 14, and 16.\nA strip of concanavalin A, (Sigma, St. Louis, Mo.) was prepared as described in Example 1 for hexokinase, mounted on the arms 148, 146 and extended by 1.2% in buffer 1 (10 mM HEPES buffer, pH=7.5, containing 0.1 M NaCl and 0.1 mM MnCl2 and CaCl2 each). After relaxation solutions with 0.25 mM, 1.25 mM, 5 mM and 10 mM of methyl-α-D-mannopyranoside (MP) on the same buffer 1 were introduced into the well 210 at the moments indicated by arrows in the FIG. 14."}, "[3]": {"biological_target": "T1, concanavalin A", "details": "as compared to MP; Biochem. Biophys. Acta, 165:398 (1968); cited from earlier work"}}}
{"smiles": "OC[C@H]1OC(O)[C@H](O)[C@@H](O)[C@@H]1O", "note": "(stereo partly drawn) [glucose]", "values": [{"measurement": "inverse tension changes against inverse glucose concentration", "setting": "[1]; Lineweaver-Burk plot, FIG. 13", "value": "linear relationship"}, {"measurement": "changes in isometric tension and compliance", "setting": "[1]; hexokinase film strip, varying glucose concentration, 10 mM HEPES, pH=7.5, 0.1 NaCl, extended 2.8%", "value": "large but reversible changes"}, {"measurement": "tension change on introduction of glucose", "setting": "[2]; 5 mM glucose", "value": "very small tension changes"}, {"measurement": "ability of binding concanavalin A compared to MP", "setting": "[3]", "value": "much lower ability of binding concanavalin A"}]}
{"smiles": "CO[C@H]1O[C@H](CO)[C@@H](O)[C@H](O)[C@@H]1O", "note": "[MP, methyl-α-D-mannopyranoside]", "values": [{"measurement": "Kd", "setting": "[2]", "value": 300, "unit": "µM"}, {"measurement": "tension change on ligand addition without divalent cations", "setting": "[2]; 10 mM MP in buffer 2", "value": "reversible drop of tension by ΔF2, similar to the effect, ΔF1, in buffer 1"}, {"measurement": "isometric tension change on ligand addition", "setting": "[2]; buffer 1, 0.25, 1.25, 5 and 10 mM MP", "value": "reduce progressively the isometric tension"}, {"measurement": "reversibility of MP-induced decrease in tension", "setting": "[2]; return to buffer 1", "value": "completely reversible"}]}
{"smiles": "[Ca+2].[Cl-].[Cl-]", "note": "[CaC12, CaCl2]", "values": [{"measurement": "tension change on removal of divalent cations", "setting": "[2]", "value": "considerable decrease of tension"}]}
{"smiles": "O=C(O)CN(CCN(CC(=O)O)CC(=O)O)CC(=O)O", "note": "[EDTA]", "values": [{"measurement": "tension change on addition of EDTA", "setting": "[2]", "value": "reduces tension still more"}, {"measurement": "tension change on introduction of EDTA-free buffer 2 after EDTA", "setting": "[2]", "value": "does not affect tension"}]}
{"smiles": "[Cl][Mn][Cl]", "note": "[MnCl2]", "values": [{"measurement": "tension change on removal of divalent cations", "setting": "[2]", "value": "considerable decrease of tension"}]}
